Measurements taken from the NIST ThermoML archive (doi:10.1021/je800110r).
Numbers after ± are expanded uncertainties.

Conditions: Liquid, Vibrating tube method

CCCCCCCCCC [decane]
Conditions	mass density [kg/m3]
323.15 K, 32682 kPa	732.9 ± 2.1
323.15 K, 32750 kPa	733 ± 2.1
323.15 K, 32786 kPa	733 ± 2.1
323.15 K, 32870 kPa	732.9 ± 2.1
323.15 K, 33409 kPa	733.4 ± 2.1
323.15 K, 33442 kPa	733.3 ± 2.1
323.15 K, 33464 kPa	733.5 ± 2.1
323.15 K, 33482 kPa	733.3 ± 2.1
323.15 K, 33530 kPa	733.5 ± 2.1
323.15 K, 33575 kPa	733.5 ± 2.1
323.15 K, 33593 kPa	733.4 ± 2.1
323.15 K, 34001 kPa	733.8 ± 2.1
323.15 K, 34025 kPa	733.8 ± 2.1
323.15 K, 34059 kPa	733.8 ± 2.1
323.15 K, 34079 kPa	733.8 ± 2.1
323.15 K, 34114 kPa	733.9 ± 2.1
323.15 K, 34138 kPa	733.8 ± 2.1
323.15 K, 34175 kPa	734 ± 2.1
323.15 K, 34199 kPa	733.8 ± 2.1
323.15 K, 34237 kPa	733.8 ± 2.1
323.15 K, 34400 kPa	734 ± 2.1
323.15 K, 34425 kPa	734.1 ± 2.1
323.15 K, 34440 kPa	734 ± 2.1
323.15 K, 34451 kPa	734.1 ± 2.1
323.15 K, 34456 kPa	734 ± 2.1
323.15 K, 34460 kPa	734.2 ± 2.1
323.15 K, 34463 kPa	734.1 ± 2.1
323.15 K, 34464 kPa	734.1 ± 2.1
323.16 K, 356 kPa	707.2 ± 2
323.16 K, 379 kPa	707.1 ± 2
323.16 K, 400 kPa	707.2 ± 2
323.16 K, 417 kPa	707.2 ± 2
323.16 K, 438 kPa	707.2 ± 2
323.16 K, 464 kPa	707.2 ± 2
323.16 K, 488 kPa	707.3 ± 2
323.16 K, 517 kPa	707.3 ± 2
323.16 K, 541 kPa	707.3 ± 2
323.16 K, 575 kPa	707.3 ± 2
323.16 K, 612 kPa	707.4 ± 2
323.16 K, 646 kPa	707.4 ± 2
323.16 K, 728 kPa	707.6 ± 2
323.16 K, 944 kPa	707.8 ± 2
323.16 K, 1001 kPa	707.8 ± 2
323.16 K, 1024 kPa	707.7 ± 2
323.16 K, 1047 kPa	707.8 ± 2
323.16 K, 1070 kPa	707.8 ± 2
323.16 K, 1102 kPa	707.8 ± 2
323.16 K, 1211 kPa	708 ± 2
323.16 K, 1244 kPa	708 ± 2
323.16 K, 1280 kPa	708.1 ± 2
323.16 K, 1314 kPa	708 ± 2
323.16 K, 1337 kPa	708.2 ± 2
323.16 K, 1362 kPa	708.2 ± 2
323.16 K, 1381 kPa	708.2 ± 2
323.16 K, 1405 kPa	708.1 ± 2
323.16 K, 1427 kPa	708.2 ± 2
323.16 K, 1453 kPa	708.3 ± 2
323.16 K, 1479 kPa	708.2 ± 2
323.16 K, 1503 kPa	708.2 ± 2
323.16 K, 1524 kPa	708.3 ± 2
323.16 K, 1553 kPa	708.2 ± 2
323.16 K, 1582 kPa	708.2 ± 2
323.16 K, 1608 kPa	708.4 ± 2
323.16 K, 1630 kPa	708.4 ± 2
323.16 K, 1671 kPa	708.3 ± 2
323.16 K, 1694 kPa	708.4 ± 2
323.16 K, 1723 kPa	708.5 ± 2
323.16 K, 1748 kPa	708.5 ± 2
323.16 K, 1778 kPa	708.5 ± 2
323.16 K, 1812 kPa	708.4 ± 2
323.16 K, 1848 kPa	708.5 ± 2
323.16 K, 1871 kPa	708.5 ± 2
323.16 K, 1898 kPa	708.7 ± 2
323.16 K, 1945 kPa	708.7 ± 2
323.16 K, 1973 kPa	708.7 ± 2
323.16 K, 2008 kPa	708.6 ± 2
323.16 K, 2050 kPa	708.7 ± 2
323.16 K, 2081 kPa	708.7 ± 2
323.16 K, 2113 kPa	708.8 ± 2
323.16 K, 2151 kPa	708.7 ± 2
323.16 K, 2201 kPa	708.9 ± 2
323.16 K, 2247 kPa	708.9 ± 2
323.16 K, 2281 kPa	708.8 ± 2
323.16 K, 2332 kPa	708.9 ± 2
323.16 K, 2405 kPa	709.1 ± 2
323.16 K, 2718 kPa	709.4 ± 2
323.16 K, 2738 kPa	709.3 ± 2
323.16 K, 2755 kPa	709.4 ± 2
323.16 K, 2772 kPa	709.4 ± 2
323.16 K, 2789 kPa	709.5 ± 2
323.16 K, 2809 kPa	709.5 ± 2
323.16 K, 2845 kPa	709.6 ± 2
333.14 K, 21082 kPa	717.8 ± 2
333.14 K, 21129 kPa	717.8 ± 2
333.14 K, 26540 kPa	722.1 ± 2.1
333.14 K, 26569 kPa	722.1 ± 2.1
333.14 K, 26609 kPa	722 ± 2.1
333.14 K, 26648 kPa	722.2 ± 2.1
333.14 K, 26696 kPa	722.2 ± 2.1
333.14 K, 26733 kPa	722.2 ± 2.1
333.14 K, 26773 kPa	722.3 ± 2.1
333.14 K, 26813 kPa	722.3 ± 2.1
333.14 K, 26859 kPa	722.4 ± 2.1
333.14 K, 26912 kPa	722.4 ± 2.1
333.14 K, 26958 kPa	722.4 ± 2.1
333.14 K, 26993 kPa	722.4 ± 2.1
333.14 K, 27039 kPa	722.4 ± 2.1
333.14 K, 27087 kPa	722.4 ± 2.1
333.14 K, 27129 kPa	722.6 ± 2.1
333.14 K, 27171 kPa	722.5 ± 2.1
333.14 K, 27219 kPa	722.5 ± 2.1
333.14 K, 30020 kPa	724.6 ± 2.1
333.14 K, 30058 kPa	724.6 ± 2.1
333.14 K, 30100 kPa	724.7 ± 2.1
333.14 K, 30134 kPa	724.7 ± 2.1
333.14 K, 30168 kPa	724.7 ± 2.1
333.14 K, 30197 kPa	724.7 ± 2.1
333.14 K, 30227 kPa	724.8 ± 2.1
333.14 K, 30265 kPa	724.9 ± 2.1
333.14 K, 30291 kPa	724.8 ± 2.1
333.14 K, 30312 kPa	724.8 ± 2.1
333.14 K, 30350 kPa	724.9 ± 2.1
333.14 K, 30376 kPa	724.8 ± 2.1
333.14 K, 30402 kPa	724.9 ± 2.1
333.14 K, 30432 kPa	724.9 ± 2.1
333.14 K, 30458 kPa	724.9 ± 2.1
333.14 K, 30480 kPa	725 ± 2.1
333.14 K, 30502 kPa	725 ± 2.1
333.14 K, 30528 kPa	725 ± 2.1
333.14 K, 30566 kPa	725 ± 2.1
333.14 K, 30592 kPa	724.9 ± 2.1
333.14 K, 30623 kPa	725 ± 2.1
333.14 K, 30654 kPa	725.2 ± 2.1
333.14 K, 30689 kPa	725.2 ± 2.1
333.14 K, 31374 kPa	725.5 ± 2.1
333.14 K, 31402 kPa	725.6 ± 2.1
333.14 K, 31439 kPa	725.6 ± 2.1
